tested on: MeV-Alaska; assay: Antiviral activity of compound analogs against MeV-Alaska (tables 1-5); assay type: cell-based, measles virus; conditions: Measles morbillivirus; Table 5

EC50 [µM] | Compound
> 75 | Cc1ccc(-n2c(SC(C)(C)C(=O)Nc3ccc(C)cc3Cl)nc3ccccc32)cc1 [Compound 145]
> 75 | COc1ccc(Cn2c(NC(C)C(=O)Nc3ccc(C)cc3Cl)nc3ccccc32)cc1 (stereo not shown) [Compound 127]
> 9.3 | Cc1ccc(NC(=O)C(C)Sc2cc3ccccc3n2-c2ccccc2)c(Cl)c1 (stereo not shown) [Compound 173]
> 75 | COc1ccc(Cn2c(CC(C)NC(=O)c3ccc(Cl)cc3Cl)nc3ccccc32)cc1 (stereo not shown) [Compound 136]
2.1 | Cc1ccc(NC(=O)C(C)Sc2nc3cc(C)c(C)cc3n2Cc2ccc(F)cc2)c(Cl)c1 (stereo not shown) [Compound 129]
> 75 | COc1ccc(Cn2c(CCC(=O)Nc3ccc(Cl)cc3Cl)nc3ccccc32)cc1 [Compound 160]
> 75 | Cc1cc2nc(SC(C)C(=O)N(Cc3ccc(F)cc3)c3ncc(Cl)cc3Cl)n(Cc3ccc(F)cc3)c2cc1C (stereo not shown) [Compound 157]
> 75 | Cc1ccc(NC(=O)C(C)Sc2nc3ccccc3s2)c(Cl)c1 (stereo not shown) [Compound 130]
> 75 | Cc1ccc(NC(=O)CSc2nc3ccc(Br)cc3n2Cc2ccc(F)cc2)c(Cl)c1 [Compound 169]
> 75 | CCOC(=O)c1ccc2[nH]c(SC(C)C(=O)Nc3ncc(C)cc3Cl)nc2c1 (stereo not shown) [Compound 164]

same assay, conditions: Table 1

Compound | EC50 [µM]
COc1ccc(-n2c(SC(C)C(=O)Nc3nc(C)cc(Cl)n3)nc3ccccc32)cc1 (stereo not shown) [Compound 7] | > 150
COc1ccc(-n2c(SC(C)C(=O)Nc3ccc(Cl)cn3)nc3ccccc32)cc1 (stereo not shown) [Compound 38] | 11.5
COc1ccc(-n2c(SC(C)C(=O)Nc3ncc(C)s3)nc3ccccc32)cc1 (stereo not shown) [Compound 53] | > 150
COc1ccc(-n2c(SC(C)C(=O)Nc3ccc(F)cc3)nc3ccccc32)cc1 (stereo not shown) [Compound 47] | > 10
COc1ccc(-n2c(SC(C)C(=O)Nc3ccc(C#N)cn3)nc3ccccc32)cc1 (stereo not shown) [Compound 26] | > 75
COc1ccc(-n2c(SC(C)C(=O)Nc3nccs3)nc3ccccc32)cc1 (stereo not shown) [Compound 36] | 4
COc1ccc(-n2c(SC(C)C(=O)Nc3nc(Cl)ccc3Cl)nc3ccccc32)cc1 (stereo not shown) [Compound 4] | 0.3
COc1ccc(-n2c(SC(C)C(=O)Nc3ccc(NC(C)=O)c(C)c3)nc3ccccc32)cc1 (stereo not shown) [Compound 17] | > 9.3
COc1ccc(-n2c(SC(C)C(=O)Nc3cc(C)nn3C)nc3ccccc32)cc1 (stereo not shown) [Compound 18] | 0.9
COc1ccc(-n2c(SC(C)C(=O)Nc3nc(C)c(C)s3)nc3ccccc32)cc1 (stereo not shown) [Compound 54] | 2.5

same assay, conditions: Table 2

Compound | EC50 [µM]
CCOc1ccc(-n2c(SC(C)C(=O)Nc3ccc(C)cc3Cl)nc3ccccc32)cc1 (stereo not shown) [Compound 73] | 0.05
Cc1ccc(NC(=O)C(C)Sc2nc3ccccc3n2-c2ccc(OCCO)cc2)c(Cl)c1 (stereo not shown) [Compound 58] | 4.6
Cc1ccc(NC(=O)C(C)Sc2nc3ccccc3n2-c2ccc(N)cc2)c(Cl)c1 (stereo not shown) [Compound 78] | 1.33
Cc1ccc(NC(=O)C(C)Sc2nc3ccccc3n2-c2ccc(CC=O)cc2)c(Cl)c1 (stereo not shown) [Compound 62] | 8.5
Cc1ccc(NC(=O)C(C)Sc2nc3ccccc3n2-c2cccc(CO)c2)c(Cl)c1 (stereo not shown) [Compound 80] | 0.7
Cc1cccc(-n2c(SC(C)C(=O)Nc3ccc(C)cc3Cl)nc3ccccc32)c1 (stereo not shown) [Compound 75] | 0.1

same assay, conditions: Table 3

Compound | EC50 [µM]
COc1cccc(-n2c(SC(C)C(=O)Nc3ncc(C)cc3Cl)nc3ccccc32)c1 (stereo not shown) [Compound 108] | 0.4
CC(Sc1nc2ccccc2n1Cc1ccccc1)C(=O)Nc1ncc(Cl)cc1Cl (stereo not shown) [Compound 111] | 4.9
CC(Sc1nc2ccccc2n1-c1ccc(F)cc1)C(=O)Nc1ncc(Cl)cc1Cl (stereo not shown) [Compound 101] | 0.3
CCOc1ccc(-n2c(SC(C)C(=O)Nc3cc(C)cc(C)n3)nc3ccccc32)cc1 (stereo not shown) [Compound 115] | 1.5

same assay, conditions: in our assays

Compound | MeV inhibitory activity
O=C(CSc1nnc(Br)n1-c1ccc(C2CC2)c2ccccc12)Nc1ccc(C(=O)O)cc1Cl [RDEA-806, 4-(2-((5-bromo-4-(4-cyclopropylnaphthalen-1-yl)-4H-1,2,4-triazol-3-yl)thio)acetamido)-3-chlorobenzoic acid, reference compound] | lacks MeV inhibitory activity
